# Data as given in ChEMBL document CHEMBL3112408, “1,2,3-triazole-, arylamino- and thio-substituted 1,4-naphthoquinones: potent antitumor activity, electrochemical aspects, and bioisosteric replacement of C-ring-modified lapachones” (Bioorg Med Chem, 2014).
# How the values were obtained:
# [1] = test system: V79; assay: Cytotoxicity against chinese hamster V79 cells assessed as cell viability after 72 hrs by MTT assay; format: cell-based; settings: Cricetulus griseus, V79, 72 h
# [2] = test system: HL-60; assay: Cytotoxicity against human HL60 cells assessed as cell viability after 72 hrs by MTT assay; format: functional, cell-based; settings: HL-60, 72 h
# [3] = Cytotoxicity against human HCT8 cells assessed as cell viability after 72 hrs by MTT assay; format: functional, cell-based; settings: HCT-8, 72 h
# [4] = test system: DU-145; assay: Cytotoxicity against human DU145 cells assessed as cell viability after 72 hrs by MTT assay; format: functional, cell-based; settings: DU-145, 72 h
# [5] = test system: OVCAR-8; assay: Cytotoxicity against human OVCAR8 cells assessed as cell viability after 72 hrs by MTT assay; format: functional, cell-based; settings: OVCAR-8, 72 h
# [6] = test system: HCT-116; assay: Cytotoxicity against human HCT116 cells assessed as cell viability after 72 hrs by MTT assay; format: functional, cell-based; settings: HCT-116, 72 h
# [7] = test system: MDA-MB-435; assay: Cytotoxicity against human MDA-MB-435 cells assessed as cell viability after 72 hrs by MTT assay; format: functional, cell-based; settings: MDA-MB-435, 72 h
# [8] = test system: MCF7; assay: Cytotoxicity against human MCF7 cells assessed as cell viability after 72 hrs by MTT assay; format: functional, cell-based; settings: MCF7, 72 h
# [9] = test system: MX1; assay: Cytotoxicity against human MX1 cells assessed as cell viability after 72 hrs by MTT assay; format: functional, cell-based; settings: MX1, 72 h
# [10] = test system: PBMC; assay: Cytotoxicity against human PBMC assessed as cell viability after 72 hrs by MTT assay; format: cell-based
# [11] = test system: PC-3; assay: Cytotoxicity against human PC3 cells assessed as cell viability after 72 hrs by MTT assay; format: functional, cell-based; settings: PC-3, 72 h
# [12] = test system: L929; assay: Cytotoxicity against mouse L929 cells assessed as cell viability after 72 hrs by MTT assay; format: ADME, cell-based; settings: L929, 72 h
# [13] = test system: SF-295; assay: Cytotoxicity against human SF295 cells assessed as cell viability after 72 hrs by MTT assay; format: functional, cell-based; settings: SF-295, 72 h
# [14] = Cytotoxicity against human Hs578T cells assessed as cell viability after 72 hrs by MTT assay; format: functional, cell-based; settings: Hs-578T
SMILES,IC50 [1] [µM],IC50 [2] [µM],IC50 [3] [µM],IC50 [4] [µM],IC50 [5] [µM],IC50 [6] [µM],IC50 [7] [µM],IC50 [8] [µM],IC50 [9] [µM],IC50 [10] [µM],IC50 [11] [µM],IC50 [12] [µM],IC50 [13] [µM],IC50 [14] [µM]
O=C1C(Br)=C(NCc2cn(CCCN3C(=O)c4ccccc4C3=O)nn2)C(=O)c2ccccc21,> 9,> 9,> 9,> 9,> 9,> 9,> 9,> 9,> 9,> 9,> 9,> 9,> 9,> 9
O=C1C=C(NCc2cn(-c3cccc([N+](=O)[O-])c3)nn2)C(=O)c2ccccc21,> 13,> 13,> 13,> 13,> 13,> 13,> 13,> 13,> 13,> 13,> 13,> 13,> 13,> 13
O=C1C(Br)=C(NCc2cn(-c3cccc([N+](=O)[O-])c3)nn2)C(=O)c2ccccc21,> 11,> 11,> 11,> 11,> 11,> 11,> 11,> 11,> 11,> 11,> 11,> 11,> 11,> 11
CC1(C)CC(Nc2cccc(F)c2)C2=C(O1)C(=O)c1ccccc1C2=O (stereo not given),2.68,,,8.76,,,,6.92,7.11,4.44,7.77,3.24,,7.68
CC1(C)CC(Nc2cccc([N+](=O)[O-])c2)C2=C(O1)C(=O)c1ccccc1C2=O (stereo not given),3.86,1.51,6.42,,,8.48,1.45,,,4.84,,4.62,1.51,
CC1(C)CC(Nc2cccc(Br)c2)C2=C(O1)C(=O)c1ccccc1C2=O (stereo not given),3.2,7.66,> 12,10.5,10.4,> 12,9.6,9.99,8.66,5,9.87,3.81,8.76,11.5
CC1(C)CC(Sc2ccccc2)C2=C(O1)C(=O)c1ccccc1C2=O (stereo not given),> 14,2.91,> 14,> 14,> 14,> 14,,13.3,11.8,> 14,> 14,> 14,> 14,4.61
CC1(C)OC2=C(C(=O)c3ccccc3C2=O)C1Sc1ccccc1 (stereo not given),> 14.8,0.47,2.25,6.98,6.09,3.29,,7.43,6.45,> 14.8,6.09,13.8,9.15,3.26
CC(=O)OC[C@H]1OC(n2cc(CNC3=C(Br)C(=O)c4ccccc4C3=O)nn2)[C@H](OC(C)=O)[C@@H](OC(C)=O)[C@@H]1OC(C)=O (stereo not given in full),3.59,1.19,2.2,4.07,2.8,4.39,2.67,2.91,3.59,4.76,> 7,3.66,2.83,3.68
O=C1C=C(NCc2cn(C3=CC(=O)c4ccccc4C3=O)nn2)C(=O)c2ccccc21,6.21,0.8,2.7,5.34,2.86,> 12,3.09,3.67,3.7,6.77,5.02,5.21,3.82,5.68
O=C1C=C(n2cc(CNC3=C(Cl)C(=O)c4ccccc4C3=O)nn2)C(=O)c2ccccc21,7.1,3.42,7.08,4.92,6.02,6.65,3.33,7.76,4.02,10.2,5.42,6.83,5.55,4.68
O=C1C=C(n2cc(CNC3=C(Br)C(=O)c4ccccc4C3=O)nn2)C(=O)c2ccccc21,> 10,> 10,> 10,> 10,> 10,> 10,> 10,> 10,> 10,> 10,> 10,> 10,> 10,> 10
CC1(C)CC(Nc2ccc([N+](=O)[O-])cc2)C2=C(O1)C(=O)c1ccccc1C2=O (stereo not given),1.61,4.26,4.97,6.13,6.66,5.66,5.42,7.16,5.52,2.01,5.79,1.37,5.95,5.95
CC1(C)CC(Nc2ccc(Br)cc2)C2=C(O1)C(=O)c1ccccc1C2=O (stereo not given),2.55,4.73,5.31,6.72,5.53,5.84,5.24,4.97,6.33,2.89,5.41,2.38,6.38,6.4
CC1(C)CC(Nc2ccc(I)cc2)C2=C(O1)C(=O)c1ccccc1C2=O (stereo not given),2.55,6.88,> 10,10.8,> 10,> 10,9.01,7.53,10.7,3.22,9.06,2.31,9.19,9.17
CC1(C)CC(Nc2ccc(Cl)cc2)C2=C(O1)C(=O)c1ccccc1C2=O (stereo not given),1.5,0.98,0.65,1.17,1.47,0.54,1,0.98,0.76,0.52,1,1.85,0.71,0.6
COc1ccc(NC2CC(C)(C)OC3=C2C(=O)c2ccccc2C3=O)cc1 (stereo not given),0.96,0.19,0.47,0.88,0.44,0.33,0.58,1.02,0.52,1.76,0.55,0.74,0.74,0.69
COc1cccc2c1C(=O)c1c(O)c3c(c(O)c1C2=O)C[C@@](O)(C(=O)CO)C[C@@H]3O[C@H]1C[C@H](N)[C@H](O)[C@H](C)O1 [DOXORUBICIN],0.24,,0.13,0.53,0.35,,,,0.5,,,,,0.37
